Values after ≈ are worked out from the molar mass of the structure shown.
Key:
[1] = cited from earlier work
primary human PBMCs = test: In vitro stimulation of CD69 HIV provirus latency activation biomarker, flow cytometry; assay type: cell-based; conditions: 50 nM, without vaults, positive control, 24 hrs, N=4 donors, ±1 SD
Method: (§1) FIGS. 10A, 10B, and 10C: FIG. 10A) In vitro latent HIV activation using bryostatin 1 sequestered in AH1 vault complexes compared to empty vault complexes on J-Lat 10.6 cells for 48 hrs. In these assays 50 nM of byrostatin 1 (without vaults) was used as a positive control and induced GFP expression in 30.6% (±0.6%) of cells. Error bars indicate ±1 SD (N=3). NS not significant, **p<0.0001 empty vault vs. Vault+Byrostatin 1 (2-sided t-test). FIG. 10B) In vitro stimulation of CD69 HIV provirus latency activation biomarker using bryostatin 1 sequestered in AH1 vault complexes compared to empty vault complexes on primary human PBMCs for 24 hrs. Positive control stimulations with 50 nM of byrostatin 1 compound (without vaults) induced CD69 expression in 69.4% (±31.3%) of cells. Error bars indicate ±1 SD (N=4 different cell donors). […]
(§2) Bryostatin 1 is an effective HIV therapeutic as it activates latent HIV provirus that remains within cellular reservoirs. […] The bryostatin 1 sequestered within AH1 vault complex (bryostatin/AH1) was assessed in vitro and in vivo for the ability to activate latent HIV provirus. […] When tested for activity in this way, bryostatin/AH1 activated CD69 expression in primary human PBMC obtained from 4 different donors in a dose dependent manner with stimulation occurring at concentrations as low as 0.1 ng/μL AH1 vault complex as analyzed by flow cytometry (FIG. 10B).

J-Lat 10.6 cells = test: In vitro latent HIV activation, J-Lat 10.6 cell line assay (GFP expression); assay type: cell-based; conditions: 50 nM, without vaults, positive control, 48 hrs, N=3, ±1 SD
Method: as §1, §2

For CC1=C(/C=C/C(C)=C/C=C/C(C)=C/C(=O)O)C(C)(C)CCC1 [ATRA, All-trans Retinoic Acid], which “aqueous solubility (in words)” value [1] is on record?
Its value is “aqueous insoluble”.

What does the source list for CCC/C=C/C=C/C(=O)O[C@H]1/C(=C/C(=O)OC)C[C@H]2C[C@H]([C@@H](C)O)OC(=O)C[C@H](O)C[C@@H]3C[C@H](OC(C)=O)C(C)(C)[C@](O)(C[C@@H]4C/C(=C/C(=O)OC)C[C@H](/C=C/C(C)(C)[C@]1(O)O2)O4)O3 [Bryostatin 1]?
cells with induced CD69 expression (primary human PBMCs): 69.4%; cells with induced GFP expression (J-Lat 10.6 cells): 30.6%

With NC(=O)c1[nH]c2ccc(Cl)cc2c1S(=O)(=O)c1ccccc1 [CSIS, 5-chloro-3-phenylsulfonylindole-2-carboxamide] as the compound, how does the solubility in water [1] read?
The solubility in water was 1.4 µg/mL (≈ 4.18 µM).

Which solubility in water [1] does the source give for COc1cccc2c1C(=O)c1c(O)c3c(c(O)c1C2=O)C[C@@](O)(C(=O)CO)C[C@@H]3O[C@H]1C[C@H](N)[C@H](O)[C@H](C)O1 [Doxorubicin] here?
The solubility in water was “over 50 mg/mL”.

Source: patent US10676534B2, “Vaults engineered for hydrophobic drug delivery” (priority 2013, dated 2020)
